According to patent publication US12180187B2, “1-phenyl-5-azinylpyrazolyl-3-oxyalkyl acids and their use for controlling unwanted plant growth” (BAYER AKTIENGESELLSCHAFT, priority 2019, dated 2024):

Tests used:
STEME = test: Pre-emergence action against STEME, 1280 g/ha; assay type: in vivo, Stellaria media; settings: scored visually after about 3 weeks vs untreated controls (100% = plants have died)
Summary of the method: (§1)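 Mono- and dicot weed seeds sown in sandy loam were treated on the covering soil surface with WP or EC formulations plus 0.5% additive at 600 L water/ha. Pots stayed in a greenhouse; damage was scored visually after ~3 weeks as percent versus untreated controls (100% = dead).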

DIGSA [1] = test: Pre-emergence action against DIGSA, 1280 g/ha; assay type: in vivo, Digitaria sanguinalis; settings: visual scoring after about 3 weeks vs untreated controls, 100% = plants have died, 0% = like control plants
Summary of the method: as §1

ECHCG [2] = test: Pre-emergence action against ECHCG, 1280 g/ha; assay type: in vivo, Echinochloa crus-galli; settings: visual scoring after about 3 weeks vs untreated controls, 100% = plants have died, 0% = like control plants
Summary of the method: as §1

AMARE [3] = test: Pre-emergence action at 320 g/ha against AMARE; assay type: in vivo, Amaranthus retroflexus; settings: visual scoring after about 3 weeks vs untreated controls
Summary of the method: (§2)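 Percent herbicidal activity was assessed by eye roughly three weeks post-application, comparing with untreated plants. Treatment consisted of applying formulated compound in water plus 0.5% additive to covering soil at 600 l/ha before emergence.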

MATIN [4] = test: Pre-emergence action at 320 g/ha against MATIN; assay type: in vivo, Tripleurospermum inodorum (Matricaria inodora); settings: visual scoring after about 3 weeks vs untreated controls
Summary of the method: as §2

ECHCG [5] = test: Post-emergence action against ECHCG, 1.28 kg/ha; assay type: in vivo, Echinochloa crus-galli; settings: dosage 1280 g/ha, visual rating about 3 weeks after treatment vs untreated controls
Summary of the method: (§3)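 Visual rating against untreated plants about 3 weeks after spraying gives % activity, where 0% means like controls and 100% means plants died. Plants were treated post-emergence at the one-leaf stage with compound formulated as wettable powder or emulsion concentrate, applied at 600 L water/ha plus 0.5% additive.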

AVEFA = test: Pre-emergence action at 320 g/ha against AVEFA; assay type: in vivo; settings: visual scoring after about 3 weeks vs untreated controls
From the text: (§4) b) Seeds of monocotyledonous and dicotyledonous weed plants and crop plants are placed in plastic or organic planting pots and covered with soil. The compounds of the invention, formulated in the form of wettable powders (WP) or as emulsion concentrates (EC), are then applied onto the surface of the covering soil as aqueous suspension or emulsion with addition of 0.5% additive at a water application rate of 600 l/ha (converted). After the treatment, the pots are placed in a greenhouse and kept under good growth conditions for the trial plants. After about 3 weeks, the effect of the preparations is scored visually in comparison with untreated controls as percentages. For example, 100% activity=the plants have died, 0% activity=like control plants. Tables 13 to 26 below show the effects of selected compounds of the general formula (I) on various harmful plants and at an application rate corresponding to 320 g/ha, which were obtained by the experimental procedure mentioned above.

ABUTH = test: Post-emergence action against ABUTH, 1.28 kg/ha; assay type: in vivo, Abutilon theophrasti; settings: dosage 1280 g/ha, visual rating about 3 weeks after treatment vs untreated controls (100% = plants died)
Summary of the method: as §3

SETVI [6] = test: Pre-emergence action at 320 g/ha against SETVI; assay type: in vivo, Setaria viridis; settings: visual scoring after about 3 weeks vs untreated controls
Summary of the method: as §2

VIOTR = test: Pre-emergence action at 320 g/ha against VIOTR; assay type: in vivo, Viola tricolor; settings: dosage 320 g/ha
Summary of the method: as §2

SETVI [7] = test: Post-emergence action against SETVI, 1.28 kg/ha; assay type: in vivo, Setaria viridis; settings: dosage 1280 g/ha, visual rating about 3 weeks after treatment vs untreated controls
Summary of the method: as §3

DIGSA [8] = test: Post-emergence action against DIGSA, 1.28 kg/ha; assay type: in vivo, Digitaria sanguinalis; settings: dosage 1280 g/ha, visual rating about 3 weeks after treatment vs untreated controls
Summary of the method: as §3

LOLRI [9] = test: Pre-emergence action at 320 g/ha against LOLRI; assay type: in vivo, Lolium rigidum; settings: visual scoring after about 3 weeks vs untreated controls
Summary of the method: as §2

ALOMY [10] = test: Post-emergence action against ALOMY, 1.28 kg/ha; assay type: in vivo, Alopecurus myosuroides; settings: dosage 1280 g/ha, visual rating about 3 weeks after treatment vs untreated controls
Summary of the method: as §3

VERPE [11] = test: Post-emergence action against VERPE, 1.28 kg/ha; assay type: in vivo, Veronica persica; settings: dosage 1280 g/ha, visual rating about 3 weeks after treatment vs untreated controls (100% = plants died)
Summary of the method: as §3

KCHSC [12] = test: Post-emergence action against KCHSC, 1.28 kg/ha; assay type: in vivo, Bassia scoparia; settings: dosage 1280 g/ha, visual rating about 3 weeks after treatment vs untreated controls (100% = plants died)
Summary of the method: as §3

SETVI [13] = test: Pre-emergence action against SETVI, 1280 g/ha; assay type: in vivo, Setaria viridis; settings: visual scoring after about 3 weeks vs untreated controls, 100% = plants have died, 0% = like control plants
Summary of the method: as §1

MATIN [14] = test: Post-emergence action against MATIN, 1.28 kg/ha; assay type: in vivo, Tripleurospermum inodorum (Matricaria inodora); settings: dosage 1280 g/ha, visual rating about 3 weeks after treatment vs untreated controls (100% = plants died)
Summary of the method: as §3

POAAN [15] = test: Pre-emergence action against POAAN, 1280 g/ha; assay type: in vivo, Poa annua; settings: visual scoring after about 3 weeks vs untreated controls, 100% = plants have died, 0% = like control plants
Summary of the method: as §1

LOLRI [16] = test: Post-emergence action against LOLRI, 1.28 kg/ha; assay type: in vivo, Lolium rigidum; settings: dosage 1280 g/ha, visual rating about 3 weeks after treatment vs untreated controls
Summary of the method: as §3

POLCO = test: Pre-emergence action at 320 g/ha against POLCO; assay type: in vivo, Fallopia convolvulus (Polygonum convolvulus); settings: visual scoring after about 3 weeks vs untreated controls
Summary of the method: as §2

ECHGC = test: Pre-emergence action at 320 g/ha against ECHGC; assay type: in vivo, Echinochloa crus-galli; settings: visual scoring after about 3 weeks vs untreated controls
From the text: as §4

AMARE [17] = test: Post-emergence action against AMARE, 1.28 kg/ha; assay type: in vivo, Amaranthus retroflexus; settings: dosage 1280 g/ha, visual rating about 3 weeks after treatment vs untreated controls (100% = plants died)
Summary of the method: as §3

VERPE [18] = test: Pre-emergence action at 320 g/ha against VERPE; assay type: in vivo, Veronica persica; settings: visual scoring after about 3 weeks vs untreated controls
Summary of the method: as §2

LOLRI [19] = test: Pre-emergence action against LOLRI, 1280 g/ha; assay type: in vivo, Lolium rigidum; settings: visual scoring after about 3 weeks vs untreated controls, 100% = plants have died, 0% = like control plants
Summary of the method: as §1

AMARE [20] = test: Pre-emergence action against AMARE, 1280 g/ha; assay type: in vivo, Amaranthus retroflexus; settings: scored visually after about 3 weeks vs untreated controls (100% = plants have died)
Summary of the method: as §1

MATIN [21] = test: Pre-emergence action against MATIN, 1280 g/ha; assay type: in vivo, Tripleurospermum inodorum (Matricaria inodora); settings: scored visually after about 3 weeks vs untreated controls (100% = plants have died)
Summary of the method: as §1

POAAN [22] = test: Post-emergence action against POAAN, 1.28 kg/ha; assay type: in vivo, Poa annua; settings: dosage 1280 g/ha, visual rating about 3 weeks after treatment vs untreated controls
Summary of the method: as §3

ALOMY [23] = test: Pre-emergence action at 320 g/ha against ALOMY; assay type: in vivo, Alopecurus myosuroides; settings: scored visually after about 3 weeks vs untreated controls (100% = plants have died)
Summary of the method: as §2

ALOMY [24] = test: Pre-emergence action against ALOMY, 1280 g/ha; assay type: in vivo, Alopecurus myosuroides; settings: visual scoring after about 3 weeks vs untreated controls, 100% = plants have died, 0% = like control plants
Summary of the method: as §1

VERPE [25] = test: Pre-emergence action against VERPE, 1280 g/ha; assay type: in vivo, Veronica persica; settings: scored visually after about 3 weeks vs untreated controls (100% = plants have died)
Summary of the method: as §1

KCHSC [26] = test: Pre-emergence action against KCHSC, 1280 g/ha; assay type: in vivo, Bassia scoparia; settings: scored visually after about 3 weeks vs untreated controls (100% = plants have died)
Summary of the method: as §1

Structure (SMILES): O=C(O)CNC(=O)COc1nn(-c2ccccc2F)c(-c2ccc(F)nc2)c1Br [Example X-021-a]
- Pre-emergence action against STEME (STEME): 100%
- Pre-emergence action against DIGSA (DIGSA [1]): 100%
- Pre-emergence action against ECHCG (ECHCG [2]): 100%
- Pre-emergence action against AMARE in % (AMARE [3]): 100%
- Pre-emergence action against MATIN in % (MATIN [4]): 90%
- Post-emergence action against ECHCG (ECHCG [5]): 100%
- Pre-emergence action against AVEFA in % (AVEFA): 100%
- Post-emergence action against ABUTH (ABUTH): 100%
- Pre-emergence action against SETVI in % (SETVI [6]): 100%
- Pre-emergence action against VIOTR in % (VIOTR): 100%
- Post-emergence action against SETVI (SETVI [7]): 100%
- Post-emergence action against DIGSA (DIGSA [8]): 100%
- Pre-emergence action against LOLRI in % (LOLRI [9]): 100%
- Post-emergence action against ALOMY (ALOMY [10]): 100%
- Post-emergence action against VERPE (VERPE [11]): 100%
- Post-emergence action against KCHSC (KCHSC [12]): 100%
- Pre-emergence action against SETVI (SETVI [13]): 100%
- Post-emergence action against MATIN (MATIN [14]): 90%
- Pre-emergence action against POAAN (POAAN [15]): 100%
- Post-emergence action against LOLRI (LOLRI [16]): 100%
- Pre-emergence action against POLCO in % (POLCO): 100%
- Pre-emergence action against ECHGC in % (ECHGC): 100%
- Post-emergence action against AMARE (AMARE [17]): 100%
- Pre-emergence action against VERPE in % (VERPE [18]): 100%
- Pre-emergence action against LOLRI (LOLRI [19]): 100%
- Pre-emergence action against AMARE (AMARE [20]): 100%
- Pre-emergence action against MATIN (MATIN [21]): 100%
- Post-emergence action against POAAN (POAAN [22]): 100%
- Pre-emergence action at 320 g/ha against ALOMY in % (ALOMY [23]): 100%
- Pre-emergence action against ALOMY (ALOMY [24]): 100%
- Pre-emergence action against VERPE (VERPE [25]): 100%
- Pre-emergence action against KCHSC (KCHSC [26]): 90%
